Assays:
Assay type in all cases: in vivo, Humulus lupulus
Cashmere Hops [1] = assay: Bitter acids analysis of treated hop plants, Example 2 (HPLC, modified EBC 7.8); settings: MDJ foliar spray 1 mM or 5 mM vs untreated control
Procedure: (§1) Hop plants were treated with illustrative elicitor compositions of the disclosure to determine the effect of treatment on hop terpene content. The hop cultivar was Cashmere Hops. The treatments were as follows: Control (“CK2”)—Untreated control; TR1—1 mM MDJ Foliar Spray: TR2—5 mM MDJ Foliar Spray.
(§2) Harvested hops were analyzed for total oil, beta acid, alpha acid, terpene, and thiol content. Total oil analysis was performed according to Analytica EBC Method 7.10, employing steam distillation. Alpha/beta/iso-alpha acid analysis was performed using HPLC, employing a modified version of Analytica EBC Method 7.8. Terpene analysis was performed according to Analytica EBC Method 7.12, employing Capillary Gas Chromatography Flame Ionization Detection. Thiol composition was analyzed via gas chromatography with sulfur chemiluminescence detector (GC-SCD).

Cashmere Hops [2] = assay: Terpene analysis of treated hop plants, Example 2 (EBC 7.12, GC-FID); settings: 5 mM MDJ foliar spray vs control
Procedure: as §1, §2

CTZ hop plants [3] = assay: Total oil analysis of treated hop plants, Example 4
Procedure: (§3) Hop plants were treated with illustrative elicitor compositions of the disclosure to determine the effect of treatment on hop bitter acid and terpene content. The hop cultivar was CTZ, also known as Columbus, Tomahawk, or Zeus, three trade names owned by various private corporations for the same variety of hop. The treatments were as follows: 1 mM, 5 mM, and 10 mM MDJ Foliar Spray. Harvested hops were analyzed for total oil, beta acid, alpha acid, and terpene content. Total oil and terpene analysis was performed according to a modified version of Analytica EBC Method 7.12, employing Capillary Gas Chromatography Flame Ionization Detection. Plants were measured in triplicate from each treatment group; results represent the average of three samples. Alpha/beta/iso-alpha acid analysis was performed using HPLC, employing a modified version of Analytica EBC Method 7.8.

CTZ hop plants [4] = assay: Alpha/beta acid analysis of treated hop plants, Example 4 (HPLC, modified EBC 7.8)
Procedure: as §3

CTZ hop plants [5] = assay: Terpene analysis of treated hop plants, Example 4 (modified EBC 7.12, GC-FID); settings: % of overall terpene content; for Terpene content: Geranyl acetate 1*: (2E) isomer; for Terpene content: Geranyl acetate 2**: (2Z) isomer; for Terpene content: Nerolidol 1*: (E) isomer; for Terpene content: Nerolidol 2**: (Z) isomer
Procedure: as §3

## CCCCCC1C(=O)CCC1CC(=O)OC (stereo not drawn) [MDJ, methyl dihydrojasmonate]
Cashmere Hops [1]
  content of the alpha acid analogue cohumulone: decreased
Cashmere Hops [1]; especially at 5 mM
  beta acid content: statistically significant increase
Cashmere Hops [2]
  caryophyllene content: increased
  caryophyllene oxide content: decreased
  citral content: decreased
  farnesene content: increased
  geraniol content: increased
  humulene content: increased
  methyl heptanoate content: decreased
  methyl laurate content: decreased
  methyl octanoate content: increased
  methyl thiohexanoate content: increased
  myrcene content: decreased
  nerolidol content: increased
  ocimene content: increased
  q-pinene content: increased
  β-pinene content: decreased
CTZ hop plants [3]; 1 mM MDJ foliar spray
  Total oil: 1.43 mL/100 g
CTZ hop plants [3]; 5 mM MDJ foliar spray
  Total oil: 2.22 mL/100 g
CTZ hop plants [3]; 10 mM MDJ foliar spray
  Total oil: 1.72 mL/100 g
CTZ hop plants [4]; 1 mM MDJ foliar spray
  Alpha Acids: 4.83%
  Beta Acids: 3.53%
  Cohumulone: 21.43 % alpha
  Colupulone: 43.53 % beta
CTZ hop plants [4]; 5 mM MDJ foliar spray
  Alpha Acids: 6.10%
  Beta Acids: 3.83%
  Cohumulone: 23.37 % alpha
  Colupulone: 49.3 % beta
CTZ hop plants [4]; 10 mM MDJ foliar spray
  Alpha Acids: 7.80%
  Beta Acids: 4.23%
  Cohumulone: 26.03 % alpha
  Colupulone: 43.47 % beta
CTZ hop plants [4]; 1, 5, 10 mM MDJ foliar spray
  Colupolone content, as a percentage of overall beta acids: highest at 5 mM treatment
  alpha acid content: dose-dependent increase
  beta acid content: dose-dependent increase
CTZ hop plants [4]; with increasing MDJ concentration (1, 5, 10 mM)
  Cohumulone content as a percentage of overall alpha acids: increased
CTZ hop plants [5]; 1 mM MDJ foliar spray
  Terpene content: 2-Undecanone: 0.00%
  Terpene content: Alpha-pinene: 0.37%
  Terpene content: Beta-ionone: 0.08%
  Terpene content: Beta-pinene: 0.36%
  Terpene content: Caryophyllene: 16.6%
  Terpene content: Caryophyllene oxide: 0.12%
  Terpene content: Citral: 0.32%
  Terpene content: Citronellene: 0.42%
  Terpene content: Citronellol: 0.00%
  Terpene content: Farnesene: 0.00%
  Terpene content: Geraniol: 0.52%
  Terpene content: Humulene: 38.7%
  Terpene content: Limonene: 0.10%
  Terpene content: Linalool: 0.21%
  Terpene content: Methyl Heptanoate: 0.06%
  Terpene content: Methyl Laurate: 0.39%
  Terpene content: Methyl Octanoate: 0.44%
  Terpene content: Methyl thiohexanoate: 0.05%
  Terpene content: Myrcene: 27.0%
  Terpene content: Nerol: 0.03%
  Terpene content: Ocimene: 0.39%
  Terpene content: Terpinolene: 0.25%
  Terpene content: Unidentified: 13.0%
  Terpene content: Geranyl acetate 1*: 0.38%
  Terpene content: Geranyl acetate 2**: 0.07%
  Terpene content: Nerolidol 1*: 0.09%
  Terpene content: Nerolidol 2**: 0.06%
CTZ hop plants [5]; 5 mM MDJ foliar spray
  Terpene content: 2-Undecanone: 0.01%
  Terpene content: Alpha-pinene: 0.14%
  Terpene content: Beta-ionone: 0.59%
  Terpene content: Beta-pinene: 0.35%
  Terpene content: Caryophyllene: 13.4%
  Terpene content: Caryophyllene oxide: 0.04%
  Terpene content: Citral: 0.11%
  Terpene content: Citronellene: 0.42%
  Terpene content: Citronellol: 0.00%
  Terpene content: Farnesene: 0.03%
  Terpene content: Geraniol: 0.78%
  Terpene content: Humulene: 27.3%
  Terpene content: Limonene: 0.09%
  Terpene content: Linalool: 0.31%
  Terpene content: Methyl Heptanoate: 0.05%
  Terpene content: Methyl Laurate: 0.11%
  Terpene content: Methyl Octanoate: 0.31%
  Terpene content: Methyl thiohexanoate: 0.05%
  Terpene content: Myrcene: 39.0%
  Terpene content: Nerol: 0.00%
  Terpene content: Ocimene: 0.28%
  Terpene content: Terpinolene: 0.11%
  Terpene content: Unidentified: 15.7%
  Terpene content: Geranyl acetate 1*: 0.43%
  Terpene content: Geranyl acetate 2**: 0.11%
  Terpene content: Nerolidol 1*: 0.14%
  Terpene content: Nerolidol 2**: 0.12%
CTZ hop plants [5]; 10 mM MDJ foliar spray
  Terpene content: 2-Undecanone: 0.07%
  Terpene content: Alpha-pinene: 0.11%
  Terpene content: Beta-ionone: 0.52%
  Terpene content: Beta-pinene: 0.54%
  Terpene content: Caryophyllene: 13.2%
  Terpene content: Caryophyllene oxide: 0.07%
  Terpene content: Citral: 0.20%
  Terpene content: Citronellene: 0.39%
  Terpene content: Citronellol: 0.00%
  Terpene content: Farnesene: 0.02%
  Terpene content: Geraniol: 0.82%
  Terpene content: Humulene: 24.7%
  Terpene content: Limonene: 0.09%
  Terpene content: Linalool: 0.31%
  Terpene content: Methyl Heptanoate: 0.06%
  Terpene content: Methyl Laurate: 0.19%
  Terpene content: Methyl Octanoate: 0.24%
  Terpene content: Methyl thiohexanoate: 0.02%
  Terpene content: Myrcene: 39.6%
  Terpene content: Nerol: 0.02%
  Terpene content: Ocimene: 0.16%
  Terpene content: Terpinolene: 0.05%
  Terpene content: Unidentified: 17.8%
  Terpene content: Geranyl acetate 1*: 0.38%
  Terpene content: Geranyl acetate 2**: 0.09%
  Terpene content: Nerolidol 1*: 0.17%
  Terpene content: Nerolidol 2**: 0.22%

Reference: patent US20260223844A1, “METHODS AND COMPOSITIONS FOR ALTERING METABOLITES IN HOP PLANTS” (Impello Biosciences, Inc., priority 2023, published 2026)
